According to ChEMBL document CHEMBL4421720, “Tetrahydropyridopyrazines modulators of gpr6” (2016):

Target: G-protein coupled receptor 6 (Homo sapiens, UniProt P46095)
Assay: Modulation activity at GPR6 receptor (unknown origin) expressed in CHO-K1 cells assessed as inhibition of constitutive cAMP activity incubated for 45 mins by Perkin Elmer Lance HTRF Ultrac-AMP assay
Format: functional, cell-based

Chain of G-protein coupled receptor 6 (P46095 whole entry): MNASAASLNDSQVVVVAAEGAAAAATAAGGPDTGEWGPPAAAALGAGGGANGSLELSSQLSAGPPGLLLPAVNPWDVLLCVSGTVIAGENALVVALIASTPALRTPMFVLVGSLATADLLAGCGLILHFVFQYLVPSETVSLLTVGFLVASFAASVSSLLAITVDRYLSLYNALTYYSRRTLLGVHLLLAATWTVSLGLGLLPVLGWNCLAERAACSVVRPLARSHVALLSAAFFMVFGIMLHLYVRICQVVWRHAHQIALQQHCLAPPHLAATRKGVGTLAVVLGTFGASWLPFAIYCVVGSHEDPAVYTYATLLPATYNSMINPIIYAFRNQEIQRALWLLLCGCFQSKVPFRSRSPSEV

| Compound | IC50 (cho-k1) [µM] | IC50 [µM] |
| --- | --- | --- |
| CC(C)Nc1nc2c(nc1N1CCC(C(=O)c3cc(Cl)ccc3F)CC1)CCN(C)C2 | 13.7 |  |
| CC(=O)N1CCc2nc(N3CCC(C(=O)c4cc(Cl)ccc4F)CC3)c(NC(C)C)nc2C1 |  | 13.8 |
